Reference: PubChem BioAssay (NCI)
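Cultured in 96-well plates, cells were exposed to test compound for 48 hours across five concentrations. GI50 = concentration required for 50% inhibition of growth. Definition used: TGI = concentration required for complete inhibition of growth.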

How the values were obtained:
Test in all cases: NCI tumour cell line growth inhibition, 48 h
HOP-62 NSCLC = system: HOP-62 NSCLC
SF-539 CNS = system: SF-539 CNS
OVCAR-4 ovarian = system: OVCAR-4 ovarian
MDA-MB-435 = system: MDA-MB-435
SW-620 colon = system: SW-620 colon
U251 CNS = system: U251 CNS
CAKI-1 renal = system: CAKI-1 renal
MCF7 breast = system: MCF7 breast
UACC-257 melanoma = system: UACC-257 melanoma
LOX IMVI melanoma = system: LOX IMVI melanoma
A549 NSCLC = system: A549 NSCLC
PC-3 prostate = system: PC-3 prostate
RPMI-8226 leukemia = system: RPMI-8226 leukemia
TK-10 renal = system: TK-10 renal
MALME-3M melanoma = system: MALME-3M melanoma
ACHN renal = system: ACHN renal
HCT-116 colon = system: HCT-116 colon
SN12C renal = system: SN12C renal
HT29 colon = system: HT29 colon
SK-MEL-28 melanoma = system: SK-MEL-28 melanoma
M14 melanoma = system: M14 melanoma
KM12 colon = system: KM12 colon
NCI-H226 lung = system: NCI-H226 lung
786-0 renal = system: 786-0 renal
SF-268 CNS = system: SF-268 CNS
NCI/ADR-RES ovarian = system: NCI/ADR-RES ovarian
BT-549 breast = system: BT-549 breast
MDA-MB-468 breast = system: MDA-MB-468 breast
NCI-H460 lung = system: NCI-H460 lung
HCT-15 colon = system: HCT-15 colon
K-562 leukemia = system: K-562 leukemia
T-47D breast = system: T-47D breast
OVCAR-3 ovarian = system: OVCAR-3 ovarian
DU-145 prostate = system: DU-145 prostate
MDA-MB-231 breast = system: MDA-MB-231 breast
IGROV1 ovarian = system: IGROV1 ovarian
SNB-75 CNS = system: SNB-75 CNS
SR leukemia = system: SR leukemia
SK-MEL-5 melanoma = system: SK-MEL-5 melanoma
RXF 393 renal = system: RXF 393 renal
OVCAR-8 ovarian = system: OVCAR-8 ovarian
A498 renal = system: A498 renal
UACC-62 melanoma = system: UACC-62 melanoma
NCI-H522 lung = system: NCI-H522 lung
EKVX NSCLC = system: EKVX NSCLC
HL-60(TB) leukemia = system: HL-60(TB) leukemia
HS 578T breast = system: HS 578T breast
HCC-2998 colon = system: HCC-2998 colon
MOLT-4 leukemia = system: MOLT-4 leukemia
HOP-92 NSCLC = system: HOP-92 NSCLC
SNB-19 CNS = system: SNB-19 CNS
OVCAR-5 ovarian = system: OVCAR-5 ovarian
NCI-H23 lung = system: NCI-H23 lung
SK-MEL-2 melanoma = system: SK-MEL-2 melanoma
UO-31 renal = system: UO-31 renal
CCRF-CEM leukemia = system: CCRF-CEM leukemia
SF-295 CNS = system: SF-295 CNS
COLO 205 colon = system: COLO 205 colon
SK-OV-3 ovarian = system: SK-OV-3 ovarian

O=C(Nc1cccc(C(F)(F)F)c1)c1cncc(C#Cc2cnc3ccc(N4CCOCC4)nn23)c1
GI50 (HOP-62 NSCLC): 2.39 µM | TGI (HOP-62 NSCLC): 35.4 µM | GI50 (SF-539 CNS): 1.11 µM | TGI (SF-539 CNS): 3.01 µM | GI50 (OVCAR-4 ovarian): 15 µM | TGI (OVCAR-4 ovarian): > 86.8 µM | GI50 (MDA-MB-435): 4.33 µM | TGI (MDA-MB-435): 18.2 µM | GI50 (SW-620 colon): 3.03 µM | TGI (SW-620 colon): > 86.8 µM | GI50 (U251 CNS): 15.4 µM | TGI (U251 CNS): 67.2 µM | GI50 (CAKI-1 renal): 4.23 µM | TGI (CAKI-1 renal): 47.4 µM | GI50 (MCF7 breast): 2.76 µM | TGI (MCF7 breast): 26.4 µM | GI50 (UACC-257 melanoma): 10.1 µM | TGI (UACC-257 melanoma): 56.6 µM | GI50 (LOX IMVI melanoma): 2.55 µM | TGI (LOX IMVI melanoma): 11.6 µM | GI50 (A549 NSCLC): 8.38 µM | TGI (A549 NSCLC): > 86.8 µM | GI50 (PC-3 prostate): 10.8 µM | TGI (PC-3 prostate): 72.6 µM | GI50 (RPMI-8226 leukemia): 12.5 µM | TGI (RPMI-8226 leukemia): 44.9 µM | GI50 (TK-10 renal): 6.98 µM | TGI (TK-10 renal): 51.9 µM | GI50 (MALME-3M melanoma): 4.24 µM | TGI (MALME-3M melanoma): 18.7 µM | GI50 (ACHN renal): 3.67 µM | TGI (ACHN renal): 42.3 µM | GI50 (HCT-116 colon): 1.92 µM | TGI (HCT-116 colon): 13.4 µM | GI50 (SN12C renal): 2.49 µM | TGI (SN12C renal): 25.3 µM | GI50 (HT29 colon): 3.12 µM | TGI (HT29 colon): 20.8 µM | GI50 (SK-MEL-28 melanoma): 4.85 µM | TGI (SK-MEL-28 melanoma): 23 µM | GI50 (M14 melanoma): 3.47 µM | TGI (M14 melanoma): 14.8 µM | GI50 (KM12 colon): 0.00868 µM | TGI (KM12 colon): 14.1 µM | GI50 (NCI-H226 lung): 1.7 µM | TGI (NCI-H226 lung): > 86.8 µM | GI50 (786-0 renal): 8.11 µM | TGI (786-0 renal): 42.9 µM | GI50 (SF-268 CNS): 4.58 µM | TGI (SF-268 CNS): 34.8 µM | GI50 (NCI/ADR-RES ovarian): 9.21 µM | TGI (NCI/ADR-RES ovarian): 44.6 µM | GI50 (BT-549 breast): 5.13 µM | TGI (BT-549 breast): 26.3 µM | GI50 (MDA-MB-468 breast): 12.8 µM | TGI (MDA-MB-468 breast): 27 µM | GI50 (NCI-H460 lung): 11 µM | TGI (NCI-H460 lung): 27.4 µM | GI50 (HCT-15 colon): 6.58 µM | TGI (HCT-15 colon): 51.2 µM | GI50 (K-562 leukemia): 1.89 µM | TGI (K-562 leukemia): > 86.8 µM | GI50 (T-47D breast): 9.23 µM | TGI (T-47D breast): 62.1 µM | GI50 (OVCAR-3 ovarian): 8.91 µM | TGI (OVCAR-3 ovarian): 52.6 µM | GI50 (DU-145 prostate): 4.3 µM | TGI (DU-145 prostate): 80 µM | GI50 (MDA-MB-231 breast): 1.13 µM | TGI (MDA-MB-231 breast): 9.33 µM | GI50 (IGROV1 ovarian): 2.08 µM | TGI (IGROV1 ovarian): 12.4 µM | GI50 (SNB-75 CNS): 1.76 µM | TGI (SNB-75 CNS): 7.71 µM | GI50 (SR leukemia): 2.94 µM | TGI (SR leukemia): > 86.8 µM | GI50 (SK-MEL-5 melanoma): 11.2 µM | TGI (SK-MEL-5 melanoma): 22.8 µM | GI50 (RXF 393 renal): 2.36 µM | TGI (RXF 393 renal): 6.36 µM | GI50 (OVCAR-8 ovarian): 5.9 µM | TGI (OVCAR-8 ovarian): 82.2 µM | GI50 (A498 renal): 5.53 µM | TGI (A498 renal): 16.6 µM | GI50 (UACC-62 melanoma): 2.74 µM | TGI (UACC-62 melanoma): 13.4 µM | GI50 (NCI-H522 lung): 9.08 µM | TGI (NCI-H522 lung): 24.5 µM | GI50 (EKVX NSCLC): 4.49 µM | TGI (EKVX NSCLC): 21 µM | GI50 (HL-60(TB) leukemia): 0.834 µM | TGI (HL-60(TB) leukemia): 42.3 µM | GI50 (HS 578T breast): 1.62 µM | TGI (HS 578T breast): 5.45 µM | GI50 (HCC-2998 colon): 5.97 µM | TGI (HCC-2998 colon): 35.6 µM | GI50 (MOLT-4 leukemia): 14.6 µM | TGI (MOLT-4 leukemia): > 86.8 µM | GI50 (HOP-92 NSCLC): 1.24 µM | TGI (HOP-92 NSCLC): 3.47 µM | GI50 (SNB-19 CNS): 17.1 µM | TGI (SNB-19 CNS): 49.8 µM | GI50 (OVCAR-5 ovarian): 2.74 µM | TGI (OVCAR-5 ovarian): 38.6 µM | GI50 (NCI-H23 lung): 2.38 µM | TGI (NCI-H23 lung): 11.7 µM | GI50 (SK-MEL-2 melanoma): 3.87 µM | TGI (SK-MEL-2 melanoma): 13.6 µM | GI50 (UO-31 renal): 3.31 µM | TGI (UO-31 renal): 19.2 µM | GI50 (CCRF-CEM leukemia): 5.21 µM | TGI (CCRF-CEM leukemia): 48.8 µM | GI50 (SF-295 CNS): 11 µM | TGI (SF-295 CNS): 29.8 µM | GI50 (COLO 205 colon): 3.2 µM | TGI (COLO 205 colon): 11.4 µM | GI50 (SK-OV-3 ovarian): 7.01 µM | TGI (SK-OV-3 ovarian): 48.8 µM
